{
  "source": "patent US6159953A",
  "about": "“Anti-malarial composition and method of use” (Catholic University of America, priority 1992, dated 2000)",
  "key": {"[1]": {"tested_on": "Plasmodium falciparum, Sierra Leone clone", "test": "[U-14C]-isoleucine incorporation into parasite protein, Sierra Leone clone", "format": "cell-based, P. falciparum", "details": "Table 2, isoleucine uptake", "method": "3. […] Agents Chemotherap., 16:710-18 (1979)].\nThe chloroquine-sensitive Sierra Leone clone of P. falciparum was cultured in erythrocytes as in Example 1 above. In one method of determining the toxicity of 5-fluoro-orotate, [G-^3 H]-hypoxanthine uptake was used as an indicator of parasite proliferation, according to the procedure of Example 1 above. In a second method, the increase in parasitemia was determined directly by smearing infected erythrocytes on microscope slides, staining with Giemsa stain, and determining the ratio of infected to non-infected erythrocytes. In a third method, parasite-infected erythrocytes were incubated with [U-^14 C]-isoleucine (0.5 μCi; 0.33 Ci/mmol), and the amount of radioactivity incorporated into precipitable proteins determined."}, "[2]": {"tested_on": "Plasmodium falciparum, Sierra Leone clone D6", "test": "Inhibition of P. falciparum proliferation, [G-3H]-hypoxanthine incorporation, Sierra Leone clone D6 (chloroquine-sensitive)", "format": "cell-based", "details": "for IC50: Plasmodium falciparum", "method": "(§1) 3. Effects of pyrimidine analogues alone or in combination with normal pyrimidine bases or nucleosides or with amino acid derivatives can be tested in malaria parasite-infected erythrocytes. Varying concentrations of pyrimidine analogues in culture medium are added to individual wells of microtitre plates [Desjardins, R. E. et al., Antimicrob. […] Parasitemic erythrocytes in culture medium are added to each well. […] As an alternative to adding a radioactive precursor of nucleic acid biosynthesis, the end point for determining the effects of added drugs can be the incorporation of a radioactive amino acid, e.g., [U-^14 C]-isoleucine, into parasite protein.\nFluoropyrimidines, dispersed in 25 μl of culture medium, were added to individual wells of a 96-well microtitre plate. […] Finally, the incorporation of 0.5 μCi of [G-^3 H]hypoxanthine (1 Ci/mmol) into nucleic acids in each well was determined; this served as a measure of parasite proliferation. […] In a second method, the increase in parasitemia was determined directly by smearing infected erythrocytes on microscope slides, staining with Giemsa stain, and determining the ratio of infected to non-infected erythrocytes. In a third method, parasite-infected erythrocytes were incubated with [U-^14 C]-isoleucine (0.5 μCi; 0.33 Ci/mmol), and the amount of radioactivity incorporated into precipitable proteins determined."}, "[3]": {"tested_on": "Plasmodium falciparum, Indochina clone W2", "test": "microbe, parasite or virus in culture", "details": "for IC50: Plasmodium falciparum", "method": "In the antimalarial experiment with parasites, incorporation of radioactivity from [G-^3 H]-hypoxanthine into nucleic acids served as a measure of parasite proliferation. […] Each data point represents an average of two determinations. In the study of toxicity to human cells, proliferation of cells was determined directly by measuring the number of viable cells per well. […] Each data point represents an average of two determinations. 5-fluoro-orotate (.circle-solid.), 5-fluorouracil (.box-solid.), 5-fluorouridine (.tangle-solidup.), and 5-fluoro-2'-deoxyuridine (.diamond-solid.).\nHalf shaded symbols represent overlapping data points.\nas §1\nFluoropyrimidines, dispersed in 25 μl of culture medium, were added to individual wells of a 96-well microtitre plate. […] Finally, the incorporation of 0.5 μCi of [G-^3 H]hypoxanthine (1 Ci/mmol) into nucleic acids in each well was determined; this served as a measure of parasite proliferation."}},
  "data": [
    {"smiles": "O=C(O)c1[nH]c(=O)[nH]c(=O)c1F", "note": "[5-fluoro-orotate]", "values": [
      {"measurement": "IC50", "setting": "[1]", "result": 4.7, "unit": "nM"},
      {"measurement": "IC50", "setting": "[2]; D6, Example 3, Table 2, hypoxanthine uptake", "result": 2.2, "unit": "nM"},
      {"measurement": "IC50", "setting": "[2]; D6, Sierra Leone clone, Table 1, mean ± S.D. of five independent drug response curves", "result": "5.8 ± 3.1", "unit": "nM"},
      {"measurement": "times more active than chloroquine", "setting": "[2]; chloroquine-sensitive Sierra Leone clone", "result": 1.6, "unit": "times"},
      {"measurement": "effect of uridine on cytotoxicity towards malarial parasites", "setting": "[3]; Indochina clone W-2, 48 h, 1 mM uridine (FIG. 2)", "result": "no effect"},
      {"measurement": "IC50", "setting": "[3]; W2", "result": "6 ± 1.7", "unit": "nM"},
      {"measurement": "IC50", "setting": "[3]; W2, 48 h", "result": 6, "unit": "nM"},
      {"measurement": "times more active than chloroquine", "setting": "[3]; multidrug-resistant Indochina clone", "result": 21, "unit": "times"}
    ]}
  ]
}
